According to patent publication US20260263593A1, “ALLERGY ANTIGEN AND EPITOPE THEREOF” (HOYU CO., LTD., priority 2018, published 2026):

Tested on: IgE antibody present in the serum of a shrimp-allergic patient
Assay: Epitope mapping (1): array of overlapping 15-amino-acid peptides, chemiluminescence
Format: binding, human
Conditions: 15-amino-acid peptide array; serum of 37 patients; difference from N2nd value of 5 non-shrimp-allergic subjects at least 35,000
Description: Epitope mapping was carried out using a library of overlapping peptides (length: 15 amino acids) corresponding to the amino acid sequences identified as allergy components of shrimp and the amino acid sequence of arginine kinase. Specifically, the library of overlapping peptides was prepared on the basis of the amino acid sequences of SEQ ID NOs: 117, 141, 146, 2, 45, 87, 276, 161, 230, 179, 362, 381, 399, 421, 455, 481, 486, 520, 541, 300 and 306, and arginine kinase.
The peptides to be synthesized were shifted by 10 amino acids.
For preparation of peptide arrays, the Intavis CelluSpots™ technique was used. Specifically, the peptide arrays were prepared by the following procedure: (1) synthesizing peptides of interest on amino-modified cellulose disks using an automated chemical synthesis apparatus (Intavis MultiPep RS), (2) dissolving the amino-modified cellulose disks to obtain a cellulose-bound peptide solution, and (3) spotting the cellulose-bound peptides onto coated glass slides. The details of each procedure are as described below.
Peptide synthesis was carried out in incremental steps through 9-fluorenylmethoxycarbonyl (Fmoc) chemical reaction on amino-modified cellulose disks in 384-well synthesis plates. Specifically, amino acids in which a Fmoc group is bonded to an amino group were activated in a solution of N,N′-diisopropylcarbodiimide (DIC) and 1-hydroxybenzotriazole (HOBt) in dimethylformamide (DMF) and added dropwise to the cellulose disks so that the Fmoc group-bound amino acids were bound to the amino groups on the cellulose disks (coupling). Unreacted amino groups were capped with acetic anhydride and washed with DMF. Furthermore, the Fmoc groups were eliminated from the amino groups of the amino acids bound to the amino groups on the cellulose disks by treatment with piperidine and washing with DMF. The amino acids bound to the amino groups on the cellulose disks were repetitively subjected to the coupling, the capping, and the Fmoc group elimination described above to elongate the amino terminus for peptide synthesis.
The peptides-bound cellulose disks of interest obtained above in the subsection titled “(1) Synthesis of peptide” were transferred to 96-well plates and treated with a side chain deprotection mixed solution of trifluoroacetic acid (TFA), dichloromethane, triisopropylsilane (TIPS), and water for deprotection of amino acid side chains. Then, the deprotected cellulose-bound peptides were dissolved in a mixed solution of TFA, trifluoromethanesulfonic acid (TFMSA), TIPS, and water and precipitated in tetrabutyl methyl ether (TBME), and the precipitate was resuspended in dimethyl sulfoxide (DMSO) and mixed with a mixed solution of NaCl, sodium citrate, and water to obtain a peptide solution for slide spotting.
The peptide solution for slide spotting obtained above in the subsection titled “(2) Dissolution of amino-modified cellulose disk” was spotted onto Intavis CelluSpots™ slides using Intavis Slide Spotting Robot, and the slides were dried to prepare peptide arrays.
The presence or absence of binding, to each peptide fragment, of an IgE antibody present in the serum of a shrimp-allergic patient was measured through antigen-antibody reaction using the peptide arrays. […]

Substance | Peptide bound to an IgE antibody in serum in a patient-specific manner
E1: common 15-residue IgE-binding epitope sequence of polypeptide (E1), myosin heavy chain type 1-derived (ADIEVYLLEKARVIS; VAR_SEQ 1..15 epitope) [Epitope E1] | bound to an IgE antibody in serum in a patient-specific manner
E2: common 15-residue IgE-binding epitope sequence of polypeptide (E2), myosin heavy chain type 1-derived (ARVISQSPAERGYHI; VAR_SEQ 1..15 epitope) [Epitope E2] | bound to an IgE antibody in serum in a patient-specific manner
E3: common 15-residue IgE-binding epitope sequence of polypeptide (E3), myosin heavy chain type 1-derived (GYKDQLANLMKTLNA; VAR_SEQ 1..15 epitope) [Epitope E3] | bound to an IgE antibody in serum in a patient-specific manner
E4: common 15-residue IgE-binding epitope sequence of polypeptide (E4), myosin heavy chain type 1-derived (HGELEESRTLLEQSD; VAR_SEQ 1..15 epitope) [Epitope E4] | bound to an IgE antibody in serum in a patient-specific manner
E5: common 15-residue IgE-binding epitope sequence of polypeptide (E5), myosin heavy chain type 2-derived (GTMEELRDERLAKII; VAR_SEQ 1..15 epitope) [Epitope E5] | bound to an IgE antibody in serum in a patient-specific manner
E6: common 15-residue IgE-binding epitope sequence of polypeptide (E6), myosin heavy chain type 2-derived (KDHQIRNINDEISHQ; VAR_SEQ 1..15 epitope) [Epitope E6] | bound to an IgE antibody in serum in a patient-specific manner
E7: common 15-residue IgE-binding epitope sequence of polypeptide (E7), myosin heavy chain type 2-derived (AKSAMDSLARDKALA; VAR_SEQ 1..15 epitope) [Epitope E7] | bound to an IgE antibody in serum in a patient-specific manner
E8: common 15-residue IgE-binding epitope sequence of polypeptide (E8), myosin heavy chain type 2-derived (LEEADNQINQLNNLK; VAR_SEQ 1..15 epitope) [Epitope E8] | bound to an IgE antibody in serum in a patient-specific manner
E9: common 15-residue IgE-binding epitope sequence of polypeptide (E9), myosin heavy chain type 2-derived (DQLATELDASQKECR; VAR_SEQ 1..15 epitope) [Epitope E9] | bound to an IgE antibody in serum in a patient-specific manner
E10: common 15-residue IgE-binding epitope sequence of polypeptide (E10), myosin heavy chain type 2-derived (HFRIKAVYEENLEHL; VAR_SEQ 1..15 epitope) [Epitope E10] | bound to an IgE antibody in serum in a patient-specific manner
E11: common 15-residue IgE-binding epitope sequence of polypeptide (E11), myosin heavy chain type 2-derived (RSLHEIEKNAKRFEI; VAR_SEQ 1..15 epitope) [Epitope E11] | bound to an IgE antibody in serum in a patient-specific manner
E12: common 15-residue IgE-binding epitope sequence of polypeptide (E12), glycogen phosphorylase-derived (LPEALERWPTSMLEH; VAR_SEQ 1..15 epitope) [Epitope E12] | bound to an IgE antibody in serum in a patient-specific manner
E13: common 15-residue IgE-binding epitope sequence of polypeptide (E13), glycogen phosphorylase-derived (EWVVHLDQLTKLKPL; VAR_SEQ 1..15 epitope) [Epitope E13] | bound to an IgE antibody in serum in a patient-specific manner
E14: common 15-residue IgE-binding epitope sequence of polypeptide (E14), hemocyanin subunit L1-derived (ERGIDVLGDVIESSL; VAR_SEQ 1..15 epitope) [Epitope E14] | bound to an IgE antibody in serum in a patient-specific manner
E15: common 15-residue IgE-binding epitope sequence of polypeptide (E15), hemocyanin subunit L1-derived (LIPKGNEQGLEFDLV; VAR_SEQ 1..15 epitope) [Epitope E15] | bound to an IgE antibody in serum in a patient-specific manner
E16: common 15-residue IgE-binding epitope sequence of polypeptide (E16), pyruvate kinase 3-derived (NVRKAAQKYSDKIGH; VAR_SEQ 1..15 epitope) [Epitope E16] | bound to an IgE antibody in serum in a patient-specific manner
E17: common 15-residue IgE-binding epitope sequence of polypeptide (E17), pyruvate kinase 3-derived (PGNRIFVDDGLISLI; VAR_SEQ 1..15 epitope) [Epitope E17] | bound to an IgE antibody in serum in a patient-specific manner
E18: common 15-residue IgE-binding epitope sequence of polypeptide (E18), phosphopyruvate hydratase-derived (NKLAMQEFMILPTGA; VAR_SEQ 1..15 epitope) [Epitope E18] | bound to an IgE antibody in serum in a patient-specific manner
E19: common 15-residue IgE-binding epitope sequence of polypeptide (E19), mitochondrial ATP synthase subunit alpha precursor-derived (VLSIGDGIARVYGLK; VAR_SEQ 1..15 epitope) [Epitope E19] | bound to an IgE antibody in serum in a patient-specific manner
E20: common 15-residue IgE-binding epitope sequence of polypeptide (E20), mitochondrial ATP synthase subunit alpha precursor-derived (PESDAKLKQIVTDFL; VAR_SEQ 1..15 epitope) [Epitope E20] | bound to an IgE antibody in serum in a patient-specific manner
E21: common 15-residue IgE-binding epitope sequence of polypeptide (E21), troponin I-derived (MADEEAKKKQEEIDR; VAR_SEQ 1..15 epitope) [Epitope E21] | bound to an IgE antibody in serum in a patient-specific manner
E22: common 15-residue IgE-binding epitope sequence of polypeptide (E22), cyclophilin A-derived (VMELRADVVPKTAEN; VAR_SEQ 1..15 epitope) [Epitope E22] | bound to an IgE antibody in serum in a patient-specific manner
E23: common 15-residue IgE-binding epitope sequence of polypeptide (E23), cyclophilin A-derived (SCFHRVIPNFMCQGG; VAR_SEQ 1..15 epitope) [Epitope E23] | bound to an IgE antibody in serum in a patient-specific manner
E24: common 15-residue IgE-binding epitope sequence of polypeptide (E24), arginine kinase-derived (LFDPIIEDYHVGFKQ; VAR_SEQ 1..15 epitope) [Epitope E24] | bound to an IgE antibody in serum in a patient-specific manner
